{
  "source": "patent US3972859A",
  "about": "“Novel decapeptide amide analogs of leuteinizing hormone-releasing hormone” (Takeda Chemical Industries, Ltd., priority 1974, dated 1976)",
  "origin": "cited, not measured here",
  "system": "LH-RH activity",
  "conditions": "relative to parent LH-RH; literature (Monahan et al 1973)",
  "data": [
    {"substance": "[D-Ala^6 ]LH-RH", "values": [
      {"measurement": "potency, % of the potency of the parent LH-RH", "result": "350-450%"}
    ]}
  ]
}
